Data published in patent US8765211B2, “Method for coating metal implants with therapeutic mixtures” (Enbio Limited, priority 2009, dated 2014).

Key:
[1] = Elution of vancomycin from beaded Ti coupons with zero, one or two PLGA layers in PBS buffer (UV/VIS); type: physicochemical; settings: beaded Ti coupon
Protocol: A 25 mm diameter coupon with a sintered titanium beaded surface was used as the test substrate. […] Vancomycin was dissolved in water to produce a solution of 0.5 g/25 ml. 0.5 ml of this solution was then applied in droplet form to the surface of each sample coupon and allowed to dry in an oven at 40° C. This technique was repeated three times to give a total loading of 1.5 ml of the vancomycin solution per coupon.
PLGA polymer (2.5 g) was dissolved in 50 mL of dichloromethane solvent. The polymer solution was added to the surface of the drug loaded coupons in a dropwise fashion similar to that employed to deploy the drug. Again, three applications of 0.5 ml were applied to produce a single layer of polymer with sufficient time being allowed between each application to allow the solvent to evaporate.
To investigate the effect of polymer coating thickness, a second set of three PLGA solutions were applied to form a batch of samples with 6 applications of polymer in total. This produced a sample with twice the coating thickness and is therefore herein referred to as having two layers of polymer.
All samples were then treated with an abrasive blasting process as described in WO2008/033867. The equipment platform was a Comco Standard Lathe. Two nozzles were employed to deliver an abrasive and a dopant respectively. The abrasive chosen was MCD 106 microns (Himed, NY, USA) and the dopant was hydroxyapatite (25/60 microns, SAI, France). The abrasive was delivered at a pressure of 75 psi and the dopant was delivered at 90 psi. The substrate was moved at a speed of 13 mm/sec relative to the nozzles.
Drug elution studies were carried out in PBS buffer solution and drug concentrations were determined using an Agilent 8453 UV/VIS spectrophotometer system. The elution profile of samples with zero, one and two layers of polymer were determined over 48 hours and the % vancomycin elution was determined. […] In the absence of any polymer coating, the drug had effectively eluted form the surface within 30 minutes and no further elution was detected.

[2] = Elution of gentamicin sulphate from PLGA-coated, abrasively blasted porous beaded titanium hip stem in phosphate saline buffer (Abbott TDx/FLX); type: physicochemical; settings: Summit hip stem with Porocoat finish, GS plus PLGA overcoat, blasted with MCD/HA; immersed in 300 ml phosphate saline buffer
Protocol: This example describes the modification of an implantable titanium hip stem containing a porous beaded surface. A Summit hip stem (DePuy) with a Porocoat finish was used as the substrate. The active chosen for study was gentamicin sulphate (GS).
The stem was first coated GS by dissolving 0.6 g of GS in 10 ml of water and applying the solution to the surface drop wise. In total, 0.1575 g of GS was added to the surface. Once dry, a polymer overcoat was applied by adding a solution of PLGA (3.5 g of PLGA in 10 ml of dichloromethane) dropwise and allowing to dry The coated hip stem was then abrasively blasted as per WO2008/033867 to remove the outer layer of polymer. Blasting was carried out in a Comco Standard Lathe operating at a pressure of 100 psi. MCD abrasive grit (Supplied by Himed, New York) was used as the abrasive and HA (SAI, France) was used as the dopant. Each powder was fed in a separate stream at the surface at a pressure of 100 psi and with an offset distance of 15-25 mm. The blast device was moved over the surface at a speed of approximately 100 mm/sec.
Elution of the drug from the surface was evaluated by immersing the entire hip stem in 300 ml of phosphate saline buffer and measuring drug concentration in solution using an Abbott TDx/FLX system. […]

Molecule	time by which the drug had effectively eluted from the surface ([1]; no polymer coating (zero layers))	time to complete elution ([1]; single layer of polymer (3 applications of PLGA))	elution duration ([1]; twice the thickness of polymer (6 applications of PLGA, two layers))	duration of gentamicin release [2]	time in which the bulk of the drug is released [2]
CN[C@H](CC(C)C)C(=O)N[C@H]1C(=O)N[C@@H](CC(N)=O)C(=O)N[C@H]2C(=O)N[C@H]3C(=O)N[C@H](C(=O)N[C@H](C(=O)O)c4cc(O)cc(O)c4-c4cc3ccc4O)[C@H](O)c3ccc(c(Cl)c3)Oc3cc2cc(c3O[C@@H]2O[C@H](CO)[C@@H](O)[C@H](O)[C@H]2O[C@H]2C[C@](C)(N)[C@H](O)[C@H](C)O2)Oc2ccc(cc2Cl)[C@H]1O [vancomycin]	≤ 30 min	up to 10 hours	24 h		
gentamicin sulphate				4 days	within the first day
